Source: patent publication US20230017532A1 (Hoffmann-La Roche Inc., priority 2018, published 2023)
Structures can show the parent of a compound that is named as a salt.

Tested on: Acinetobacter baumannii ATCC17978
Assay: Antimicrobial susceptibility testing: 90% growth inhibitory concentration (IC90) determination, Iso-Sensitest broth, OD 600 nm
Assay type: cell-based
Conditions: 90% growth inhibitory concentration, Acinetobacter baumannii ATCC17978, Iso-Sensitest broth, OD 600 nm over 16 h; read-out: ATCC 17978 IC90
In short: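 Growth of bacteria (~5×10^5 CFU/ml, Iso-Sensitest medium, 35±2 °C) was followed by OD at 600 nm at 20-min intervals over 16 h against a 10-point twofold compound series (e.g. 50–0.097 μM final). Concentration giving 90% inhibition in log phase was reported.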

Row | IC90 | Structure (SMILES)
1 | 660 nM | CCc1cc(Nc2nccn3c(-c4ccc(OC)c(F)c4F)cnc23)ccc1C(=O)NCCNCCN [Example 186, N-[2-(2-aminoethyl-amino)ethyl]-4-[[3-(2,3-difluoro-4-methoxyphenyl)imidazo[1,2-a]pyrazin-8-yl]amino]-2-ethyl-benzamide;2,2,2-trifluoroacetic acid]

Same assay, conditions: Acinetobacter baumannii, ATCC17978, 16 h, 90% growth inhibitory concentration, Acinetobacter baumannii ATCC17978, Iso-Sensitest broth, OD 600 nm over 16 h; read-out: ATCC 17978 IC90

Row | IC90 | Structure (SMILES)
2 | 620 nM | Cc1cc(Nc2nccn3c(-c4ccc(Cl)c(F)c4F)cnc23)ccc1C(=O)NCCNCCN [Example 122, N-[2-(2-aminoethylamino)ethyl]-4-[[3-(4-chloro-2,3-difluorophenyl)imidazo[1,2-a]pyrazin-8-yl]amino]-2-methylbenzamide; hydrochloride]
3 | 190 nM | CCc1cc(Nc2nccn3c(-c4ccc(OC)c(F)c4F)cnc23)ccc1C(=O)NCCCCCNCC(=O)O [Example 50, (5-(4-((3-(2,3-difluoro-4-methoxyphenyl)imidazo[1,2-a]pyrazin-8-yl)amino)-2-ethylbenzamido)pentyl)glycine hydrochloride]
4 | 430 nM | Cc1cc(Nc2nccn3c(-c4ccc(OCC#CCN)c(F)c4F)cnc23)ccc1C(=O)NCCOCCN [Example 160, 4-[[3-[4-(4-aminobut-2-ynoxy)-2,3-difluorophenyl]imidazo[1,2-a]pyrazin-8-yl]amino]-N-[2-(2-aminoethoxy)ethyl]-2-methylbenzamide]
5 | 590 nM | CCc1cc(Nc2nccn3c(-c4ccc(OC(F)F)c(F)c4F)cnc23)ccc1C(=O)NCCNCCO [Example 174, 4-[[3-[4-(difluoromethoxy)-2,3-difluorophenyl]imidazo[1,2-a]pyrazin-8-yl]amino]-2-ethyl-N-[2-(2-hydroxy-ethylamino)ethyl]benzamide; hydrochloride]
6 | 130 nM | COc1ccc(-c2cnc3c(Nc4cc(F)c(C(=O)NCCOCCN)c(F)c4)nccn23)c(F)c1F [Example 59, N-(2-(2-aminoethoxy)ethyl)-4-((3-(2,3-difluoro-4-methoxy-phenyl)imidazo[1,2-a]pyrazin-8-yl)amino)-2,6-difluoro-benzamide]
7 | 120 nM | CCc1cc(Nc2nccn3c(-c4ccc(OC)c(F)c4F)cnc23)ccc1C(=O)NCCN(C)CCN [Example 168, N-[2-[2-aminoethyl (methyl)amino]ethyl]-4-[[3-(2,3-difluoro-4-methoxyphenyl)imidazo[1,2-a]pyrazin-8-yl]amino]-2-ethylbenzamide; hydrochloride]
8 | 130 nM | CCc1cc(Nc2nccn3c(-c4ccc(OC)c(F)c4F)cnc23)ccc1C(=O)NCCOCCN(C)C [Example 169, 4-[[3-(2,3-difluoro-4-methoxyphenyl)imidazo[1,2-a]pyrazin-8-yl]amino]-N-[2-[2-(dimethylamino)ethoxy]ethyl]-2-ethylbenzamide]
9 | 160 nM | CCc1cc(Nc2nccn3c(-c4ccc(OCC#N)c(F)c4F)cnc23)ccc1C(=O)NCCOCCN(C)C [Example 21, 4-[[3-[4-(cyanomethoxy)-2,3-difluoro-phenyl]imidazo[1,2-a]pyrazin-8-yl]amino]-N-[2-[2-(dimethylamino)ethoxy]ethyl]-2-ethyl-benzamide]

Further lines, the compound ahead of its results:

Row | Structure (SMILES) | IC90
10 | Cc1cc(Nc2nccn3c(-c4ccc(OC(F)F)cc4)cnc23)ccc1C(=O)NCCOCCN=C(N(C)C)N(C)C [Example 79, N-[2-[2-[bis (dimethylamino)methylidene-amino]ethoxy]ethyl]-4-[[3-[4-(difluoro-methoxy)phenyl]imidazo [1,2-a]pyrazin-8-yl]amino]-2-methylbenzamide] | 1400 nM
11 | Cc1cc(Nc2nccn3c(-c4ccc(OC(F)F)cc4)cnc23)ccc1C(=O)NCCOCCN1CCC2(CCOCC2)C1 [Example 91, 4-[[3-[4-(difluoromethoxy)phenyl]imidazo [1,2-a]pyrazin-8-yl]amino]-2-methyl-N-[2-[2-(8-oxa-2-azaspiro[4.5]decan-2-yl)ethoxy]ethyl] benzamide] | 650 nM
12 | COc1ccc(-c2cnc3c(Nc4ccc(C(=O)NCCOCCN5CCNCC5)c(Cl)c4)nccn23)c(F)c1F [Example 1, 2-chloro-4-[[3-(2,3-difluoro-4-methoxyphenyl)imidazo[1,2-a]pyrazin-8-yl]amino]-N-[2-(2-piperazin-1-ylethoxy)ethyl]benzamide;2,2,2-trifluoroacetic acid] | 120 nM
13 | COc1ccc(-c2cnc3c(Nc4ccc(C(=O)NCCOCCn5nccn5)c(C)c4)nccn23)cc1 [Example 147, 4-[[3-(4-methoxyphenyl)imidazo[1,2-a]pyrazin-8-yl]amino]-2-methyl-N-[2-[2-(triazol-2-yl)ethoxy)ethyl] benzamide] | 1300 nM
14 | Cc1cc(Nc2nccn3c(-c4ccc(OC(F)F)cc4)cnc23)ccc1C(=O)NCCNCCN [Example 101, N-[2-(2-aminoethylamino)ethyl]-4-[[3-[4-(difluoromethoxy)phenyl]imidazo [1,2-a]pyrazin-8-yl]amino]-2-methylbenzamide; hydrochloride] | 440 nM
15 | COc1ccc(-c2cnc3c(Nc4ccc(C(=O)NCCOCCN5CCC(F)CC5)c(C)c4)nccn23)cc1 [Example 43, N-(2-(2-(4-fluoropiperidin-1-yl)ethoxy)ethyl)-4-((3-(4-methoxyphenyl)imidazo[1,2-a]pyrazin-8-yl)amino)-2-methylbenzamide] | 290 nM
16 | COc1ccc(-c2cnc3c(Nc4ccc(C(=O)NCCOCCN)c(Cl)c4)nccn23)cc1 [Example 6, N-(2-(2-aminoethoxy)ethyl)-2-chloro-4-((3-(4-methoxyphenyl)imidazo[1,2-a]pyrazin-8-yl)amino)benzamide hydrochloride] | 120 nM
17 | CN(CCOCCN1CCC(C(=O)O)CC1)C(=O)c1ccc(Nc2nccn3c(-c4ccc(OCC#N)c(F)c4F)cnc23)cc1Cl [Example 175, 1-[2-[2-[[2-chloro-4-[[3-[4-(cyanomethoxy)-2,3-difluorophenyl]imidazo[1,2-a]pyrazin-8-yl]amino]benzoyl]-methylamino]ethoxy]ethyl] piperidine-4-carboxylic acid; formic acid] | 1100 nM
18 | COc1ccc(-c2cnc3c(Nc4ccc(C(=O)N(C)CCOCCN5CCN(C6CC6)CC5)c(C)c4)nccn23)cc1F [Example 130, N-[2-[2-(4-cyclopropyl-piperazin-1-yl)ethoxy]ethyl]-4-[[3-(3-fluoro-4-methoxyphenyl)imidazo[1,2-a]pyrazin-8-yl]amino]-N,2-dimethyl-benzamide] | 760 nM
19 | CNCCCCNC(=O)c1ccc(Nc2nccn3c(-c4ccc(OC)c(F)c4)cnc23)cc1C [Example 161, 4-[[3-(3-fluoro-4-methoxyphenyl)imidazo[1,2-a]pyrazin-8-yl]amino]-2-methyl-N-[4-(methyl-amino)butyl] benzamide; hydrochloride] | 350 nM
20 | CNCCOCCNC(=O)c1ccc(Nc2nccn3c(-c4ccc(OC)cc4)cnc23)cc1C [Example 39, 4-((3-(4-methoxyphenyl)imidazo[1,2-a]pyrazin-8-yl)amino)-2-methyl-N-(2-(2-(methylamino)ethoxy)ethyl)benzamide] | 260 nM
21 | Cc1cc(Nc2nccn3c(-c4ccc(OC(F)F)cc4)cnc23)ccc1C(=O)NCCOCCNC(=O)CN(CCO)CCO [Example 146, N-[2-[2-[[2-[bis(2-hydroxyethyl)amino]acetyl]amino]ethoxy]ethyl]-4-[[3-[4-(difluoromethoxy)phenyl]imidazo [1,2-a]pyrazin-8-yl]amino]-2-methylbenzamide] | 1200 nM
22 | COc1ccc(-c2cnc3c(Nc4ccc(C(=O)NCCOCCN5CCC(O)CC5)c(C)c4)nccn23)cc1 [Example 38, N-(2-(2-(4-hydroxypiperidin-1-yl)ethoxy)ethyl)-4-((3-(4-methoxyphenyl)imidazo[1,2-a]pyrazin-8-yl)amino)-2-methylbenzamide] | 150 nM
23 | COc1ccc(-c2cnc3c(Nc4ccc(C(=O)N(C)CCOCCN5CCOC(CN)C5)c(C)c4)nccn23)cc1F (centres unmarked) [Example 137, N-[2-[2-[2-(aminomethyl)morpholin-4-yl]ethoxy]ethyl]-4-[[3-(3-fluoro-4-methoxyphenyl)imidazo[1,2-a]pyrazin-8-yl]amino]-N,2-dimethyl-benzamide; hydrochloride] | 940 nM
24 | CNC(=O)COCCNC(=O)c1ccc(Nc2nccn3c(-c4ccc(OC(F)F)cc4)cnc23)cc1C [Example 11, 4-((3-(4-(difluoromethoxy)phenyl)imidazo[1,2-a]pyrazin-8-yl)amino)-2-methyl-N-(2-(2-(methylamino)-2-oxoethoxy)ethyl)benzamide] | 160 nM
25 | Cc1cc(Nc2nccn3c(-c4ccc(OC(F)F)cc4)cnc23)ccc1C(=O)NCCOCCNC(=O)CN1CCNCC1 [Example 153, 4-[[3-[4-(difluoro-methoxy)phenyl]imidazo [1,2-a]pyrazin-8-yl]amino]-2-methyl-N-[2-[2-[(2-piperazin-1-ylacetyl)amino)ethoxy]ethyl] benzamide; hydrochloride] | 2000 nM
26 | Cc1cc(Nc2nccn3c(-c4ccc(OC(F)F)cc4)cnc23)ccc1C(=O)NCCOCCN [Example 90, N-[2-(2-aminoethoxy)ethyl]-4-[[3-[4-(difluoro-methoxy)phenyl]imidazo[1,2-a]pyrazin-8-yl]amino]-2-methylbenzamide; hydrochloride] | 230 nM
27 | COc1ccc(-c2cnc3c(Nc4ccc(C(=O)NCCOCCNCC(F)F)c(C)c4)nccn23)cc1 [Example 41, N-(2-(2-((2,2-difluoroethyl)amino)ethoxy)ethyl)-4-((3-(4-methoxyphenyl)imidazo[1,2-a]pyrazin-8-yl)amino)-2-methylbenzamide] | 450 nM

Same assay, conditions: Acinetobacter baumannii, ATCC17978, 16 h, read-out: ATCC 17978 IC90

Row | Structure (SMILES) | IC90
28 | Cc1cc(Nc2nccn3c(-c4ccc(OCC#N)c(F)c4)cnc23)ccc1C(=O)NCCOCCN [Example 68, N-[2-(2-aminoethoxy)ethyl]-4-[[3-[4-(cyanomethoxy)-3-fluoro-phenyl]imidazo[1,2-a]pyrazin-8-yl]amino]-2-methyl-benzamide; formic acid] | 220 nM
29 | COc1ccc(-c2cnc3c(Nc4cc(F)c(C(=O)NCCOCCN)c(Cl)c4)nccn23)c(F)c1F [Example 60, dihydrochloride] | 91 nM
